The results in this text go back to PMC3283556, “The Activities of Current Antimalarial Drugs on the Life Cycle Stages of Plasmodium: A Comparative Study with Human and Rodent Parasites” (PLoS Medicine, 2012).

Entries after “also recorded” stand apart in the source; their conditions may differ. Where two headings read alike, the source gives them in different places.

The subject of data set [1] is P. berghei ookinete formation. The data set is described as follows: P. berghei ookinete development assay. Type of data set: cell-based, Plasmodium berghei. The note with it: for effect on ookinete formation: 10 µM; for IC50 / inhibition at 10 µM: Plasmodium berghei; for IC50: read-out: IC50 ookinete formation; for inhibition at 10 µM: read-out: Inhibition at 10 μM (ookinete, Figure 5). On the procedure: Compounds and P. berghei gametocyte-infected blood were dispensed in a 96-well plate containing ookinete medium. After 24 h at 19°C, Giemsa-stained ookinetes were counted under the microscope (×40) as previously described,[28].
Figure 3 The transmission-blocking potential of selected antimalarials in three bioassays that cover different phases of Plasmodium vector stage development. (A) Assays examined exflagellation (P. falciparum), ookinete formation (P. berghei), or oocyst formation (P. falciparum). All antimalarials were screened at 10 µM. (B) The biological content of the in vitro P. berghei ookinete assay spans gamete formation, fertilization, zygote development, and ookinete formation. Ookinete formation was insensitive to most of the antimalarials tested. […] (D) The in vitro P. falciparum exflagellation assay exposes mature gametocytes to antimalarials for 24 h before triggering exflagellation. […] All experiments in triplicate. (E) The in vivo P. falciparum oocyst assay differs from the P. berghei oocyst assay in that mature gametocytes were exposed to the antimalarials in culture for 24 h before feeding to mosquitoes. […] NPC1161-B, lumefantrine, halofantrine, and mefloquine +RS isomer were also active. (n = 4–61 observations; average ± standard error of the mean [SEM]).

For data set [2], the system named is P. yoelii liver stage parasites (liver schizonts). The data set is described as follows: P. yoelii liver stage assay in HepG2 cells (EEF immunofluorescence). The note with it: for IC50: Plasmodium yoelii. In kind it is cell-based, Plasmodium yoelii. On the procedure: (§1) 7.5×10^3 HepG2 cells in 50 µl of medium (1.5×10^5 cells/ml) were seeded in 384 well plates (Aurora 384 IQ-EB Black/Clear Plates) 20–26 h prior to the actual infection. 2 h prior to infection, 50 nl of compound in DMSO (0.1% final DMSO concentration per well) were transferred with a PinTool (GNF Systems) into the assay plates (10 µM final concentration). P. yoelii sporozoites were freshly dissected from infected A. stephensi mosquito salivary glands and filtered twice with a 40-µm strainer. The HepG2 cells were then infected with 8×10^3 sporozoites per well. After infection and 1-h incubation at 37°C, the cultures were washed, new media and compound added, and further incubated with 5-fold increased concentration of penicillin/streptomycin for 48 h at 37°C before exoerythrocytic forms (EEFs) quantification of infected cells by immunofluorescence.
After washing with 1×PBS and fixation of the cells with 4% paraformaldehyde solution (EMS), membranes were permeabilised with 0.5% Triton-X-100 (Thermo Fisher Scientific) and EEFs were stained using a mouse polyclonal serum raised against the Plasmodium heat shock protein 70 (HSP70), an Alexa goat antimouse IgG, Fca-specific DyLight 649 secondary antibody (Invitrogen), and the Hoechst 33342 nucleic acid dye (Invitrogen). Stained EEFs were then quantified using the Opera Confocal High Content Screening system (PerkinElmer). Images were collected using a 20× magnification at a binning of 2 using a 365 Xeon arc lamp illumination to detect the nuclei and 635-nm laser line to excite DyLight649.
(§2) High-content imaging of infected HepG2-CD81 cells was performed as described in Meister et al.. Wells were analysed using a custom Acapella (PerkinElmer) script parameterized for this assay. In brief, images from fields inside the well were first discarded as out of focus when the intensity in the nuclear area was too low. Then hepatic cells were counted by detecting the nuclei labelled with Hoechst 33342 and parasites were segmented using the HSP70 immuno-labelling. Morphology-based (e.g., area, roundness) and intensity-based features were calculated for each object detected including the hepatocyte nuclei and the parasites. Parasitemia was set as the ratio between parasite number (Alexa fluor positive) and the hepatocyte nuclei count, determined at the same time.
(§3) When an infected mosquito bites a host, ∼100 sporozoites may be injected into the dermis from where they rapidly invade liver cells,[33]. This infective step represents the second bottleneck during transmission and therefore another potentially vulnerable point for intervention. In the absence of a practical liver stage assay measuring the formation of P. falciparum/P. vivax liver schizonts, an equivalent assay was developed in P. yoelii and used to assess the activity of the collection of molecules against this specific stage. Specifically, P. yoelii sporozoites were dissected from the salivary glands of infected mosquitoes and were allowed to invade human hepatocarcinoma cells expressing the CD81 protein. The development of the liver schizonts was monitored by immunofluorescence staining using an HSP70 antibody specific to the parasite (Figure 4A).
Figure 4 Validation and results of anti-infectives tested against P. yoelii liver stage parasites. (A) Opera-generated images from a time point experiment using a 20× objective lens. P. yoelii parasites (red) were visualized using a mouse polyclonal HSP70 antibody, and the HepG2 cells (green) were stained with Hoechst 33342 nucleic acid dye. […] (B) A dose response plot with atovaquone from data generated from the Opera imaging system. The median areas of compound-treated parasites were compared to untreated DMSO controls to determine the degree of inhibition.

The next data set concerns Plasmodium oocysts. The data set is described as follows: Oocyst development / sporogony, Plasmodium species not stated at the place. Type of data set: in vivo. The note with it: Plasmodium; 10 μM; box linked to oocysts; read-out: Inhibition at 10 μM (oocysts, Figure 5). How it is done: (§4) Membrane feeds were performed as described previously. Briefly, PbGFPcon-infected mouse blood was mixed with compounds, immediately placed into membrane feeders (39°C) and offered for 30 min to 80–100 overnight-starved A. stephensi (SDA 500 strain). After 7–9 d at 19°C/80%RH, mosquito midguts were dissected out. Midguts were fixed with paraformaldehyde and oocyst number was determined microscopically by semi-automated analysis as previously described.
Gametocyte cultures were produced according to the same protocol as the Pf exflagellation assay. Pooled gametocyte cultures were evenly divided between compounds in fresh medium and incubated at 37°C for 24 h. The parasite pellets were then resuspended in fresh RBCs and human serum treated with the compounds to a 50% haematocrit and immediately fed to mosquitoes as described above and then maintained at 27°C/60%RH for 10–12 d before dissection and counting. […]

The test system of data set [3] is P. falciparum asexual blood stage parasites (strains NF54, D6, K1, W2, 7G8, TM90C2A, V1/S). The data set is described as follows: [3H]-hypoxanthine incorporation growth inhibition assay, asexual blood stage. Type of data set: cell-based, Plasmodium falciparum. The note with it: Plasmodium falciparum. How it is done:
In vitro antimalarial activity was measured using the [^3H]-hypoxanthine incorporation assay with various strains of P. falciparum obtained from MR4. Results were expressed as the concentration resulting in 50% inhibition (IC50).
The half-maximal inhibitory concentrations (IC50) were determined for each molecule (Table S2).
Figure 2 The potencies of selected antimalarials against asexual blood stages. Main classes of antimalarials were tested against the blood stage of seven Plasmodium falciparum strains in the [^3H]hypoxanthine incorporation assay as described in Vennerstrom et al.. The strains tested here (obtained from MR4) were two drug-sensitive strains NF54 and D6 and five drug-resistant strains: K1, resistant to chloroquine (CQ) and pyrimethamine (PYR), origin Thailand, carries mutations in genes pfmdr1, pfcrt, pfdhfr, pfdhps; W2, resistant to CQ, PYR, quinine, cycloguanil, and sulfadoxine, origin Vietnam; 7G8, resistant to CQ and PYR, origin Brazil; TM90C2A, resistant to CQ, PYR, and MFQ, origin Thailand; and V1/S, resistant to CQ, PYR and cycloguanil, origin Vietnam. Results are expressed as the concentration resulting in 50% growth inhibition (IC50).Values are means of ≥3 independent experiments. (A) Endoperoxides. (B) 4-AQs. (C) 8-AQs and amino alcohols. (D) Antifolates, antibiotics, and others.

Data set [4] concerns P. falciparum mature gametocytes / male gamete exflagellation. The data set is described as follows: P. falciparum exflagellation assay. Type of data set: cell-based, Plasmodium falciparum. The note with it: for effect on exflagellation (words): 10 µM, 24 h exposure of mature gametocytes; for inhibition at 10 µM: Plasmodium falciparum. On the procedure:
After 24 h, exflagellation was triggered by a temperature decrease to ∼21°C and observed 20 min later under the microscope. Highly motile exflagellation centres were recorded for ∼50–150 adjacent fields of view and reported per 10,000 RBCs.
(A) Assays examined exflagellation (P. falciparum), ookinete formation (P. berghei), or oocyst formation (P. falciparum). All antimalarials were screened at 10 µM. (B) The biological content of the in vitro P. berghei ookinete assay spans gamete formation, fertilization, zygote development, and ookinete formation. […] (D) The in vitro P. falciparum exflagellation assay exposes mature gametocytes to antimalarials for 24 h before triggering exflagellation. […] All experiments in triplicate. (E) The in vivo P. falciparum oocyst assay differs from the P. berghei oocyst assay in that mature gametocytes were exposed to the antimalarials in culture for 24 h before feeding to mosquitoes.

The subject of another data set is HepG2 cells. The data set is described as follows: Growth retardation of HepG2 cells. The note with it: for IC50: Homo sapiens, HepG2, read-out: IC50 HepG2; for CI (cytotoxicity index): IC50 HepG2 compared to IC50 parasite. How it is done:
as §1, §2, §3

Data set [5] has as its system P. berghei oocyst formation. The data set is described as follows: Standard membrane feed assay, P. berghei oocysts in A. stephensi. In kind it is in vivo, Plasmodium berghei. The note with it: 10 µM. On the procedure:
as §4
Supplementary file pmed.1001169.s001.tif: Figure S1 The transmission-blocking potential of selected compounds against P. berghei in standard membrane feeding assays. All antimalarials were screened at 10 µM in triplicate in independent experiments. The biological content of this assay spans gamete formation through to occyst development all within the gut of the mosquito. […] (TIF) Click here for additional data file.

The mark [6] stands for this setting: read-out: Inhibition at 10 μM (gametocytes/exflagellation, Figure 5).
[7] abbreviates: HepG2, read-out: IC50 (liver schizont, Figure 5).
Setting [8] is: HepG2, read-out: IC50 liver stage.

Regarding `O=CN(O)CCCP(=O)(O)O` [fosmidomycin], the “effect on ookinete formation” value in data set [1] is “enhancement of ookinete formation that was not statistically significant”.

Consider `C[C@H]1[C@@H](O)O[C@@H]2O[C@@]3(C)CC[C@H]4[C@H](C)CC[C@@H]1[C@@]24OO3` [DHA, dihydroartemisinin], for which the IC50 (usually the concentration that gives 50% inhibition) in data set [2] (HepG2, box linked to liver schizont, read-out: IC50 (liver schizont, Figure 5)) is less than 1000 nM. In addition, the inhibition at 10 µM in the data set with Plasmodium oocysts was greater than 90%.

In the case of `COc1cc(C)c2c(Oc3cccc(C(F)(F)F)c3)c(OC)cc(NC(C)CCCN)c2n1` (centres unmarked) [tafenoquine], the results for the concentration for half-maximal inhibition (IC50) in data set [3] (strain 7G8) and in data set [3] (strain NF54) were roughly 50 nM and roughly 500 nM, respectively. In addition, the “effect on ookinete formation” value in data set [1] is listed as “enhancement of ookinete formation that was not statistically significant”.

For the molecule `C=C(NC(=O)C(=C)NC(=O)c1csc(C2=N[C@@H]3c4csc(n4)[C@H]4NC(=O)c5csc(n5)[C@H]([C@](C)(O)[C@@H](C)O)NC(=O)[C@H]5CSC(=N5)/C(=C/C)NC(=O)[C@H]([C@@H](C)O)NC(=O)c5csc(n5)[C@]3(CC2)NC(=O)[C@H](C)NC(=O)C(=C)NC(=O)[C@H](C)NC(=O)[C@H]([C@@H](C)CC)N[C@@H]2C=Cc3c([C@H](C)O)cc(nc3[C@H]2O)C(=O)O[C@@H]4C)n1)C(N)=O` [thiostrepton], the “effect on exflagellation (words)” value in data set [4] is on record as “Inhibition of exflagellation”. Further, the inhibition at 10 µM was greater than 80% in data set [4] (24 h, read-out: inhibition of exflagellation); greater than 60% in data set [4] (setting [6]); greater than 80% in data set [1]. Besides, the “effect on ookinete formation” value in data set [1] is given as “strongly inhibited ookinete formation”. Moreover, the IC50 is 8000 nM in data set [1]; less than 1000 nM in data set [2] (setting [7]); 180 ± 50 nM in data set [2] (HepG2, read-out: IC50 Parasite); less than 200 nM in data set [2] (setting [8]); 180 ± 20 nM with HepG2 cells. The “potency range against liver stages” value in data set [2] (dose response) is “submicromolar potencies”. Also, the “effect on growth of HepG2-CD81 cells” value in the data set with HepG2 cells is given as “retarded the growth of HepG2-CD81 cells”. In the data set with HepG2 cells, the “CI (cytotoxicity index)” value is 1.0.

In the case of `C[C@@H]1C[C@@H]([C@H](O)CC2CC(=O)NC(=O)C2)C(=O)[C@@H](C)C1` [cycloheximide], the “effect on exflagellation (words)” value in data set [4] is listed as “inhibited exflagellation totally; also recorded: Inhibition of exflagellation”. Further, the inhibition at 10 µM in data set [4] (setting [6]) was greater than 60%; in data set [1] it was greater than 80%. For the same molecule, the “effect on ookinete formation” value in data set [1] is “strongly inhibited ookinete formation”. Also, the IC50 in data set [1] is 25 nM; in data set [2] (setting [7]), less than 1000 nM; in data set [2] (HepG2, read-out: IC50 Parasite) it was 150 ± 10 nM; in data set [2] (setting [8]) it was less than 200 nM; in the data set with HepG2 cells it was 920 ± 290 nM. Moreover, in data set [5], the “transmission-blocking effect on P. berghei oocysts (words)” value was “most notable transmission-blocking activity”. Moreover, the “effect on growth of HepG2-CD81 cells” value with HepG2 cells is on record as “retarded the growth of HepG2-CD81 cells”. For the same molecule, the “CI (cytotoxicity index)” value with HepG2 cells came out at 6.13.

Take `CC(C)(N)CNC(=O)C[C@H]1CC[C@]2(CC1)OO[C@]1(O2)C2CC3CC(C2)CC1C3` [OZ277]: the “effect on exflagellation (words)” value in data set [4] is reported as “inhibited exflagellation totally”. Further, the inhibition at 10 µM in data set [4] (10 μM, box linked to gametocytes/exflagellation, read-out: Inhibition at 10 μM (gametocytes/exflagellation, Figure 5)) is greater than 60%; in the data set on Plasmodium oocysts, greater than 90%. Moreover, the IC50 turned out to be 1690 ± 1220 nM in data set [2] (HepG2, development of P. yoelii liver schizonts following infection of HepG2 cells, read-out: IC50 Parasite) and 7400 ± 5130 nM with HepG2 cells. Also, the “CI (cytotoxicity index)” value in the data set on HepG2 cells worked out at 4.38.

Regarding `CCCCC[C@@H]1CN[C@H](C(=O)N[C@@H]([C@H]2O[C@H](SC)[C@H](O)[C@@H](O)[C@H]2O)[C@H](C)Cl)C1` [cis-mirincamycin], the “effect on ookinete formation” value in data set [1] is given as “enhancement of ookinete formation that was not statistically significant”.
